Data on three molecules can be found in patent US5116845A (priority 1990, dated 1992).

The subject of data set [1] is P388 leukemia. The data set can be described thus: Antitumor activity against P388 leukemia (ip). It counts as in vivo, mice. As to conditions: maximum over the doses.
The subject of data set [2] is Gram-positive aerobic bacteria. It counts as cell-based.
The nature of data set [3]: Solubility. It counts as physicochemical.
Data set [4] relates to Gram-negative organisms. It counts as cell-based.
The subject of data set [5] is murine and human tumor cell lines. The data set can be described thus: In vitro cytotoxicity.
Data set [6] concerns P388/VCR. The data set can be described thus: In vitro cytotoxicity (viable cell count).
Data set [7] concerns mice. The data set can be described thus: Acute toxicity, intramuscular. The data set is classed as in vivo. The following applies: 5 mg/kg intramuscular.
The subject of data set [8] is Moser and HCT-116 cells. The following applies: versus murine B16-F10.

Turning to `COC1=C(C(=O)O)C(C)C23OC24c2cc(OC(C)=O)c5c(c2NC3C#C/C=C\C#CC14)C(=O)c1c(OC(C)=O)ccc(OC(C)=O)c1C5=O` (centres unmarked) [BU-3420T acetate], in data set [1], the “maximum T/C” value was determined as 135%. Besides, the “activity against Gram-positive aerobic bacteria” value in data set [2] is given as “intensely potent activity”. In addition, in data set [3] (chloroform, methanol and ethanol, compared with BU-3420T), the “solubility in organic solvents” value is reported as “much improved solubility”. In data set [4], the “susceptibility of Gram-negative organisms” value is reported as “a little less susceptible”.

On to `COC1=C(C(=O)O)C(C)C23OC24c2cc(O)c5c(c2NC3C#CC=CC#CC14)C(=O)c1c(O)ccc(O)c1C5=O` (centres unmarked) [BU-3420T], for which, in data set [5], the cytotoxicity result was “potent cytotoxicity”. In addition, the “maximum T/C” value in data set [1] amounted to 135%. The “activity against Gram-positive aerobic bacteria” value in data set [2] was “intensely potent activity”. In addition, the “cytotoxicity against VCR-resistant versus sensitive P388 cells” value in data set [6] is reported as “same cytotoxicities”. The solubility result is reported as “slightly soluble” in data set [3] (chloroform); “soluble” in data set [3] (dimethyl sulfoxide); “soluble” in data set [3] (dimethylformamide); “soluble” in data set [3] (dioxane); “slightly soluble” in data set [3] (ethanol); “slightly soluble” in data set [3] (ethyl acetate). The values for the solubility entry in data set [3] (methanol), in data set [3] (n-hexane) and in data set [3] (water) were “slightly soluble”, “insoluble” and “insoluble”, respectively. Moreover, in data set [4], the “susceptibility of Gram-negative organisms” value was “a little less susceptible”. Moreover, the toxicity entry in data set [7] is “did not show any toxicity”.

On to `CO[C@@]12[C@H](COC(N)=O)C3=C(C(=O)C(C)=C(N)C3=O)N1C[C@@H]1N[C@@H]12` [Mitomycin C], for which the “resistance of Moser and HCT-116 relative to B16-F10” value in data set [8] was “slightly more resistant”.
